Measured values taken from patent US20240189275A1, “METHODS FOR TREATING NON-ALCOHOLIC STEATOHEPATITIS WITH A SCD-1 INHIBITOR” (Lipidio Pharmaceuticals, Inc., priority 2021, published 2024).

How the values were obtained:
[1] = Body weight and body composition (EchoMRI) in GAN diet-induced, biopsy-confirmed mouse model of NASH; format: in vivo, mice; conditions: 12 weeks
Method: (§1) The effects of topical treatment of Compound 25 to 10% of the skin for 12 weeks were assessed in a diet-induced and biopsy-confirmed mouse model of NASH described in the literature (World Journal of Gastroenterology (2019), 25(33), 4904-4920). In this model, NASH is induced by maintaining mice on a high fat-high fructose diet (the so-called GAN [Novel Gubra Amylin] diet) for 33 weeks prior to drug administration. […] This biopsy is then compared to a post-drug treatment biopsy to assess changes in NAFLD activity and Fibrosis Stage. Qualitative scoring is completed with quantitative immunohistochemistry to assess effects on hepatic steatosis, inflammation (Galectin-3), fibrosis (Collagen 1a1 and Picro-Sirius Red Staining) and stellate cell activation (α-SMA). RNASeq was also performed on terminal liver samples from mice treated with placebo gel and compound 25 gel to examine key candidate genes involved in extracellular matrix formation (ECM) and fibrogenesis. Parametric (ANOVA) and non-parametric (Fisher's or Chi Square) statistics were used to analyze the data as appropriate.
SCD-1 inhibitor compounds can be tested in vivo in a rodent diet-induced model of biopsy-confirmed NASH. In this experiment, the NASH phenotype is induced by maintaining mice upon a GAN diet for 33 weeks prior to drug administration (BMC Gastroenterology (2020), 20(1), 210; World Journal of Gastroenterology (2019), 25(33), 4904-4920). […] In addition to pre- and post-treatment histological analyses, metabolic assessments such as body weight, body composition, food intake and clinical chemistries are measured during and following the 12-week study dosing period. […]
(§2) Animals and Diet: The Danish Animal Experiments Inspectorate approved all experiments which were conducted using internationally accepted principles for the use of laboratory animals under the personal license #2013-15-2934-00784. […] Mice were weighed daily during the study and body composition was measured by non-invasive EchoMRI scanning using EchoMRI-900 (EchoMRI, Houston, TX).

rat SCD-1 = target: T1, rat SCD-1 (Rattus norvegicus, UniProt P07308); assay: Inhibition of SCD-1 activity in rat liver microsomes (13C-stearoyl-CoA to 13C-oleoyl-CoA, LC/MS/MS); format: biochemical; conditions: FIG. 1, IC50 value not given
T1 construct: Rat liver microsomes (RLM, BiolVT); tissue BiolVT; host or cells: rat liver microsomes
T1 sequence (P07308 1-358): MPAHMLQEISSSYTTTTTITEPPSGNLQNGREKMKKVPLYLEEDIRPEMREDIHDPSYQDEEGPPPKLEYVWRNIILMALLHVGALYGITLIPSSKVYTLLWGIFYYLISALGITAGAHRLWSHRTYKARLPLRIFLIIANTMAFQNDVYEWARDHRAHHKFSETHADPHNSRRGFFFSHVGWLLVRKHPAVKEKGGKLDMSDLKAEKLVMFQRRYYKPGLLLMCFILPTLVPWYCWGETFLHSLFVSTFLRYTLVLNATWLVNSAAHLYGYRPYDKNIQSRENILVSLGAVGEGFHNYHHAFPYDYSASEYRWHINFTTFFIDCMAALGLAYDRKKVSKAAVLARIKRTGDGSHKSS
Method: (§3) The ability of the compound to inhibit isolated SCD-1 enzyme activity can be evaluated in rat and human microsomes as described below (Oncotarget (2018), 9, 3-20). The compound is added as various concentrations to the liver microsomes and incubated for 5 minutes with ^13C-labelled Stearoyl CoA, which is the substrate for SCD-1. The activity of SCD-1 is then determined by the conversion of ^13C-Steoryl CoA to ^13C-Oleoyl CoA using an LC/MS/MS method. The ability of the compound to inhibit SCD-1 activity is expressed as an IC50.
(§4) Compound 25 is dissolved in DMSO to prepare a 10 mM stock solution.
(§5) Rat liver microsomes (RLM, BiolVT) and human liver microsome (HLM, InVitroCYP™ H-class, Pool of 25 donors BiolVT) solutions are prepared by adding the microsomes to 100 mM sodium phosphate, pH 7.4, at a protein concentration of 1.00 mg/mL.
(§6) Compound 25 stock solution is then added to the RLM and HLM solution at an initial concentration of 0.2 μM for direct inhibition. Each LM/Inhibitor Solution is added to blank LM solution to give 8 concentrations prepared by a 3-fold serial dilution. These diluted LM/inhibitor solutions are then added to a reaction buffer containing 2 mM NADH, 120 μM Coenzyme A, 2 mM ATP, 2 mM DTT, and 10 mM MgCl2 in 100 mM sodium phosphate, pH 7.4.
(§7) A Stearoyl-^13Cis-CoA solution in 10% methanol in water is prepared at a final concentration of 3.00 mM. […]

[2] = tested on: diet-induced and biopsy-confirmed mouse model of NASH; assay: Plasma ALT and AST in mouse model of NASH; format: in vivo, mice; conditions: for plasma alanine transaminase (ALT) (units/L) / plasma aspartate transaminase (AST) (units/L): week 12
Method: (§8) SCD-1 inhibitor compounds can be tested in vivo in a rodent diet-induced model of biopsy-confirmed NASH. In this experiment, the NASH phenotype is induced by maintaining mice upon a GAN diet for 33 weeks prior to drug administration (BMC Gastroenterology (2020), 20(1), 210; World Journal of Gastroenterology (2019), 25(33), 4904-4920). A biopsy is performed prior to drug treatment to eliminate any mice that have not developed the NASH phenotype and to mirror clinical trial design where liver biopsies prior to and at the end of treatment are compared. In addition to pre- and post-treatment histological analyses, metabolic assessments such as body weight, body composition, food intake and clinical chemistries are measured during and following the 12-week study dosing period.
(§9) Mice were dosed topically to 10% of the total BSA of the skin with either a placebo gel or a gel containing compound 25 (at a concentration of 0.05%, 0.25%, 0.75%, or 2.5%). (World Journal of Gastroenterology (2018), 24(2), 179-194).
(§10) Animals and Diet: The Danish Animal Experiments Inspectorate approved all experiments which were conducted using internationally accepted principles for the use of laboratory animals under the personal license #2013-15-2934-00784. B6.V-Lepob/JRj (ob/ob) mice (6 weeks old) were from Janvier Labs (Le Genest Saint Isle, France) and housed in a controlled environment (12h light/dark cycle, lights on at 3 AM, 21+2° C., humidity 50+10%). Each animal was identified by an implantable subcutaneous microchip (PetID Microchip, E-vet, Haderslev, Denmark). Mice had ad libitum access to tap water and the Gubra Amylin NASH diet [GAN diet; 40 kcal-% fat (of these 0% trans-fat and 46% saturated fatty acids by weight), 22% fructose, 10% sucrose, 2% cholesterol; D09100310, Research Diets]. Mice were maintained on the GAN diet for 33 weeks prior to study initiation to induce NASH and remained on the GAN diet during the 12 weeks of drug administration. Mice were weighed daily during the study and body composition was measured by non-invasive EchoMRI scanning using EchoMRI-900 (EchoMRI, Houston, TX).
Plasma Biochemistry Analysis: Blood samples are collected in heparinized tubes and plasma is separated and stored at −80° C. until analysis. Alanine aminotransferase and aspartate aminotransferase (FIG. 12) were measured using commercial kits (Roche Diagnostics) on the Cobas c 501 autoanalyzer according to the manufacturer's instructions.

human SCD-1 = target: T2, human SCD-1 (Homo sapiens, UniProt O00767); assay: Inhibition of SCD-1 activity in human liver microsomes (13C-stearoyl-CoA to 13C-oleoyl-CoA, LC/MS/MS); format: biochemical; conditions: FIG. 1, IC50 value not given
T2 construct: human liver microsome (HLM, InVitroCYP™ H-class, Pool of 25 donors BiolVT); tissue BiolVT InVitroCYP™ H-class; host or cells: human liver microsomes, pool of 25 donors
T2 sequence (O00767 1-359): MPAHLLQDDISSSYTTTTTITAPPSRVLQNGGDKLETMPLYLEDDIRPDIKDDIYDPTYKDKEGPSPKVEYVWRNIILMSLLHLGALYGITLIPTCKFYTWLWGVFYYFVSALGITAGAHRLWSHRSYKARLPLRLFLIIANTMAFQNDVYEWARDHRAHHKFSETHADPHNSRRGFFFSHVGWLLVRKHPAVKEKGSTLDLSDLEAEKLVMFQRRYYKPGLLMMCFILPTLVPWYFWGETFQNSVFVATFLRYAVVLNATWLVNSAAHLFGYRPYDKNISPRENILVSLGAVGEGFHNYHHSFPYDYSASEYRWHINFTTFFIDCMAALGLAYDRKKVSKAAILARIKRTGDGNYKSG
Method: as §3, §4, §5, §6, §7

[3] = tested on: liver genes involved in inflammation, fibrogenesis, extracellular matrix formation and NASH progression; assay: RNASeq of terminal liver samples (mRNA expression) in mouse model of NASH; format: in vivo, mice
Method: as §1, §8, §9, §10

[4] = tested on: diet-induced and biopsy-confirmed mouse model of NASH; assay: Terminal hepatic triglyceride content in mouse model of NASH; format: in vivo, mice; conditions: 2.5% gel, week 12; p<0.001
Method: as §8, §9
as §2, with “TX). […]” for “TX).”

[5] = tested on: diet-induced and biopsy-confirmed mouse model of NASH; assay: Liver histology (NAS, fibrosis stage, quantitative histomorphometry) in GAN diet-induced, biopsy-confirmed mouse model of NASH; format: in vivo, mice; conditions: for number of mice with worsening (higher score) of Fibrosis Stage: placebo gel 7/16; for liver content (in mg) of α-SMA, antibody-stained sections / liver Galectin-3 content (in mg), antibody-stained sections / liver lipid content (hematoxylin and eosin-stained sections): week 12; for number of animals experiencing an improvement in NAS: topical, p<0.05 compared to placebo
Method: as §1, §8, §9, §10
Liver Biopsy: After 33 weeks of GAN diet feeding, mice were anesthetized with isoflurane (2%-3%, in 100% oxygen), a small abdominal incision in the midline was made, and the left lateral lobe of the liver was exposed. A cone-shaped wedge of liver tissue (50-100 mg) was excised from the distal part of the lobe. The cut surface of the liver was closed by electrosurgical bipolar coagulation using an electrosurgical unit (ERBE VIO® 100C, ERBE, Marietta, GA, United States). The liver was returned to the abdominal cavity, the abdominal wall was sutured and skin stapled. Carprofen (5 mg/kg, i.p.) was administered at the time of surgery and at post-operative day one and two. […]

[6] = 2.5% gel, topical to 10% of skin, p<0.001
[7] = 0.75% and 2.5% dose groups (group not specified), 16 animals per group, 12 weeks
[8] = conclusion, topical to 10% of BSA, dose not specified

Structure (SMILES): O=C(COc1ccc(CO)cc1)N1CC[C@H](Oc2ccccc2C(F)(F)F)C1 [Compound 25, (S)-2-(4-(hydroxymethyl)phenoxy)-1-(3-(2-(trifluoromethyl)phenoxy)pyrrolidin-1-yl)ethan-1-one]
- body adiposity (percent body weight) [1, 6]: significantly reduced
- body weight (percent baseline body weight) [1, 6]: significantly reduced
- total body weight or body fat ([1]; lower doses at which fibrosis changes were observed, topical): no or minimal effect
- inhibition of rat SCD-1 activity (rat SCD-1): concentration-dependent inhibition
- plasma alanine transaminase (ALT) (units/L) ([2]; 0.75% gel): reduction
- plasma aspartate transaminase (AST) (units/L) ([2]; 0.75% gel): reduction
- plasma alanine transaminase (ALT) (units/L) ([2]; 2.5% gel): reduction
- plasma aspartate transaminase (AST) (units/L) ([2]; 2.5% gel): reduction
- serum ALT and AST ([2]; conclusion, after topical dosing, dose not specified): marked decrease
- inhibition of human SCD-1 activity (human SCD-1): concentration-dependent inhibition
- liver Galectin-3 mRNA ([3]; 2.5% gel): Reduced
- liver mRNA expression of genes associated with NASH progression and poor prognosis ([3]; 2.5% gel, Aldh8a1, Aldh7a1, Annexin A2, CD36, CNBP, CIDEC, Cyclin D1, Fasn, Hsbp1, KIF6, Nfe212, Perilipin 2): significant regulation
- liver mRNA expression of genes involved in hepatic inflammation ([3]; 2.5% gel, Chemokine Ligand 2, Chemokine Ligand 5, Epithelial Cell Adhesion Protein, Cluster of Differentiation 68, Integrin X): significantly downregulated
- liver mRNA expression of genes involved in NASH fibrogenesis and extracellular matrix formation ([3]; 2.5% gel, Monocyte Chemoattractant Protein-1, Osteonectin, α-SMA, Collagen 1a1, Collagen 3a1, Collagen 4a1): significantly downregulated
- candidate genes whose expression may be predictive for poor outcomes like liver cirrhosis and cancer ([3]; conclusion, dose not specified): favorably regulated
- liver triglyceride content [4]: significantly reduced
- number of mice with worsening (higher score) of Fibrosis Stage ([5]; 0.25% gel, 12 weeks): 2/16
- liver content (in mg) of α-SMA, antibody-stained sections ([5]; 0.25% gel, p<0.05): significantly reduced
- proportion of mice exhibiting any worsening of the fibrosis stage ([5]; 0.25%, 0.75% and 2.5% gel groups, 12 weeks, placebo almost 50%): 6-12%
- animals showing a higher NAS score [5, 7]: none
- animals with a lower NAS score [5, 7]: 15/16
- liver content of Collagen 1a1 (in mg), antibody-stained sections ([5]; 0.75% gel, 12 weeks, p<0.05): significant reduction
- liver content of Picro-Sirius Red (in mg) ([5]; 0.75% gel, 12 weeks, p<0.05): significantly reduced
- number of mice with worsening (higher score) of Fibrosis Stage ([5]; 0.75% gel, 12 weeks): 2/16
- number of animals experiencing an improvement in NAS ([5]; 0.75% gel, 12 weeks): significantly greater
- liver content (in mg) of α-SMA, antibody-stained sections ([5]; 0.75% gel, p<0.01): significantly reduced
- liver Galectin-3 content (in mg), antibody-stained sections ([5]; 0.75% gel, p<0.05): significantly reduced
- liver lipid content (hematoxylin and eosin-stained sections) ([5]; 0.75% gel, p<0.05): significantly reduced
- liver content of Picro-Sirius Red (in mg) ([5]; 2.5% gel, 12 weeks, p<0.001): significantly reduced
- liver content of Collagen 1a1 (in mg), antibody-stained sections ([5]; 2.5% gel, 12 weeks, p<0.01): significant reduction
- number of mice with worsening (higher score) of Fibrosis Stage ([5]; 2.5% gel, 12 weeks): 1/16
- number of animals experiencing an improvement in NAS ([5]; 2.5% gel, 12 weeks): significantly greater
- liver Galectin-3 content (in mg), antibody-stained sections ([5]; 2.5% gel, p<0.001): significantly reduced
- liver content (in mg) of α-SMA, antibody-stained sections ([5]; 2.5% gel, p<0.001): significantly reduced
- liver lipid content (hematoxylin and eosin-stained sections) ([5]; 2.5% gel, p<0.001): significantly reduced
- liver content of Collagen 1a1 (in mg), antibody-stained sections ([5]; all doses (0.05%, 0.25%, 0.75%, 2.5% gel), 12 weeks): clear trend in reduction
- multiple quantitative markers of collagen (Collagen 1a1 immunohistochemistry; PSR staining; Collagen 1a1, 3a1, 4a1 mRNA) ([5]; conclusion, dose not specified): decreased
- α-SMA expression (stellate cell activation) ([5]; conclusion, dose not specified): decreased
- fibrosis stage [5, 8]: prevented worsening
- hepatic steatosis [5, 8]: improved
- inflammation [5, 8]: decreased
- overall NAFLD Activity Score or NAS [5, 8]: improved
